{"source": "paper PMC11961260", "about": "(Royal Society Open Science, 2025)", "key": {"[1]": {"details": "no reference given; cited from earlier work"}, "[2]": {"molecular_target": "T1, SARS-CoV-2 main protease (M^pro) (Severe acute respiratory syndrome coronavirus 2, UniProt P0DTD1)", "T1 construct": "purchased Cayman Chemicals 701960", "test": "SARS-CoV-2 main protease inhibitor screening assay (Cayman Chemicals, Catalogue Number 701960)", "format": "biochemical", "details": "for response in SARS-CoV-2 M^pro inhibition screening (in words: active/inactive) / % inhibition of SARS-CoV-2 M^pro: dendron 20 μM; for % inhibition of SARS-CoV-2 M^pro: 30 min pre-incubation, 2 h with substrate, room temperature, three wells"}, "SARS-CoV-2 main protease": {"system": "SARS-CoV-2 main protease", "details": "read-out: IC50 value of the positive control; cited from earlier work"}, "[3]": {"details": "fluorescence ex 340 nm/em 490 nm"}}, "note": "Peptide text beside a SMILES is read from it.", "data": [{"compound": "N[C@@H](CCC(=O)O)C(=O)O", "note": "[glutamic acid]", "values": [{"measurement": "pKa1(COOH)", "setting": "[1]", "result": 2.19}, {"measurement": "pKa2(side chain COOH)", "setting": "[1]", "result": 4.25}]}, {"compound": "Boc-E(WE-COOH)WE-COOH [C91]", "values": [{"measurement": "response in SARS-CoV-2 M^pro inhibition screening (in words: active/inactive)", "setting": "[2]", "result": "non-responsiveness"}, {"measurement": "% inhibition of SARS-CoV-2 M^pro", "setting": "[2]; [3]", "result": "< 25", "unit": "%"}]}, {"compound": "Ptz-GE(wE-COOH)wE-COOH [169C]", "values": [{"measurement": "response in SARS-CoV-2 M^pro inhibition screening (in words: active/inactive)", "setting": "[2]", "result": "active"}, {"measurement": "% inhibition of SARS-CoV-2 M^pro", "setting": "[2]; [3]", "result": 31, "unit": "%"}]}, {"compound": "CC(C)C[C@H](NC(=O)OCc1ccccc1)C(=O)N[C@@H](CC1CCNC1=O)C(O)S(=O)(=O)O", "note": "(stereo partly shown) [GC376]", "values": [{"measurement": "IC50", "setting": "SARS-CoV-2 main protease", "result": "0.15 ± 0.03", "unit": "µM"}]}, {"compound": "Ptz-GE(HE-COOH)HE-COOH [169A]", "values": [{"measurement": "response in SARS-CoV-2 M^pro inhibition screening (in words: active/inactive)", "setting": "[2]", "result": "inactive"}, {"measurement": "% inhibition of SARS-CoV-2 M^pro", "setting": "[2]; [3]", "result": "< 25", "unit": "%"}]}, {"compound": "Ptz-GE(FE-COOH)FE-COOH [compound 112]", "values": [{"measurement": "response in SARS-CoV-2 M^pro inhibition screening (in words: active/inactive)", "setting": "[2]", "result": "active"}, {"measurement": "% inhibition of SARS-CoV-2 M^pro", "setting": "[2]; [3]", "result": 25, "unit": "%"}]}, {"compound": "O=C(O)CC[C@H](NC(=O)[C@H](Cc1c[nH]c2ccccc12)NC(=O)CC[C@H](NC(=O)CNC(=O)CCN1c2ccccc2Sc2ccccc21)C(=O)N[C@@H](Cc1c[nH]c2ccccc12)C(=O)N[C@@H](CCC(=O)O)C(=O)O)C(=O)O", "note": "[compound 114, Ptz-GE(WE-COOH)WE-COOH] (HELM PEPTIDE1{[O=C(CCN1c2ccccc2Sc2ccccc21)[*:2]].G.E.W.E}|PEPTIDE2{W.E}$PEPTIDE1,PEPTIDE2,3:R3-1:R1$$$V2.0)", "values": [{"measurement": "response in SARS-CoV-2 M^pro inhibition screening (in words: active/inactive)", "setting": "[2]", "result": "active"}, {"measurement": "% inhibition of SARS-CoV-2 M^pro", "setting": "[2]; [3]", "result": 33, "unit": "%"}, {"measurement": "IC50", "setting": "[2]; figure 3B, fluorescence ex 340 nm/em 490 nm", "result": 65, "unit": "µM"}]}, {"compound": "Ptz-GE(YE-COOH)YE-COOH [compound 113]", "values": [{"measurement": "response in SARS-CoV-2 M^pro inhibition screening (in words: active/inactive)", "setting": "[2]", "result": "inactive"}, {"measurement": "% inhibition of SARS-CoV-2 M^pro", "setting": "[2]; [3]", "result": "< 25", "unit": "%"}]}]}
